According to article PMC5555576, “Selective small-chemical inhibitors of protein arginine methyltransferase 5 with anti-lung cancer activity” (PLoS ONE, 2017):

Tests used:
[1] = system: PRMT5 F225M; assay: Radioactive methyltransferase assay, mutant PRMT5; type: biochemical, human; conditions: Phe225 to Met
Experimental: Methylation reactions were performed as previously described with a few modifications. Reaction mixtures (40 μl) containing 1.2 μg of PRMT5, 98 ng of PRMT1 or 98 ng of PRMT3; 2 μg of SmD3 or histones; 1 μCi of S-[methyl-^3H]adenosylmethionine (H^3-AdoMet; PerkinElmer); and 5 μM AdoMet were incubated in 50 mM Tris-HCl (pH 7.5)–1 mM EGTA–1 mM EDTA at 30°C for 2 h. Reaction mixtures (20 μl) were boiled in 5 μl of 5x SDS sample buffer and separated on a 15% polyacrylamide gel. Gels were fixed for 30 min in 40% methanol–10% acetic acid, incubated in 20 ml of Amplify (Amersham Life Science) for 10 min, dried and exposed to X-ray film at -80°C. IC50 was calculated by linear regression analysis of percent inhibition. The other half (20 μl) of each reaction mixture was spread onto DE81 chromatography paper discs (Whatman). The paper discs were washed 4 times with 50 mM NaHCO3 and dried. The amounts of methylated products were quantified by liquid scintillation.
The inhibitory activity of the compounds may stem from this interaction. To test this possibility, we conducted site-directed mutagenesis to mutate Phe225 in human PRMT5 (corresponding to Phe379 in the C. elegans PRMT5) to Met. The mutated PRMT5 was expressed in bacteria and purified by Ni-nitrilotriacetic acid (Ni-NTA) affinity chromatography (Fig 4A). The activity of the mutant PRMT5 was examined by the radioactive methyltransferase assay. […] The IC50 values for the mutant PRMT5 increased from 4.3 to 183 folds higher than those for the wild type PRMT5 (Fig 4D). […] The results also can help explain the specificity of the compounds to PRMT5. However, the contribution of this interaction to inhibition varies among the compounds. For example, compound C2 interacts with three amino acid residues (Lys451, Glu450, and Phe379) (Fig 3A) with the mutation of Phe to Met resulting in a 50-times higher IC50 (Fig 4C and 4D).
Fig 4 The conserved phenylalanine residue in PRMT5 is critical for inhibition by the five compounds. A, DS-PAGE of recombinant wild type (WT) and F225M mutant (MT) PRMT5. The gel was stained with Coomassie Brilliant Blue R250. A band corresponding to an unknown bacterial protein is indicated (star). B, The F225M mutation increased the methytransferase activity of PRMT5. In vitro methylation reactions were performed with recombinant wild type (lanes 2–4) or mutant (lanes 5–7) PRMT5 (1.2, 2.4 or 4.8 μg) and SmD3 (2 μg) as the substrate. C, The F225M mutation in PRMT5 decreased inhibition of arginine methylation by the compounds. The reaction mixture contained SmD3 (2 μg); wild type or mutant PRMT5 (1.2 μg); and 1, 10 or 100 μM compounds as indicated. D, The F225M mutation in PRMT5 […] of the compounds, as determined by quantitation and analysis of methylation assay results. TEXT PRINTED IN THE PICTURE: (D) C2: IC50 (μM) PRMT5: 0.1; IC50 (μM) PRMT5 F225M: 5.0 | (D) C5: IC50 (μM) PRMT5: 0.8; IC50 (μM) PRMT5 F225M: 3.5 | (D) C6: IC50 (μM) PRMT5: 0.5; IC50 (μM) PRMT5 F225M: 7.0 | (D) C9: IC50 (μM) PRMT5: 6.0; IC50 (μM) PRMT5 F225M: 45.0 | (D) C11: IC50 (μM) PRMT5: 0.3; IC50 (μM) PRMT5 F225M: 55.0

[2] = Toxicity observed after intraperitoneal injection; type: in vivo, BALB/c mice; conditions: 100 mg/kg
Experimental: The obtained 3 compounds (C5, C9, and C11) have characteristics of Lipinski’s rule-of-five, which defines four physicochemical parameters found in a set of active drugs which made them into phase II clinical trials. We chose one compound (C9) to analyze its pharmacokinetic parameters in the mouse. BALB/c mice were randomized and administrated compound C9 (dissolved in 5% DMSO and 0.5% Tween 80) at dosages of 25, 50 and 100 mg/kg by intraperitoneal (I.P.) injection. Mice were sacrificed and blood samples were collected at different time points after administration of compounds. The compound concentrations in plasma samples were measured (S1 Fig). […] However, we observed the high toxicity of the compound in the mouse at the dosage of 100 mg/kg.

Row | increase of IC50 for mutant PRMT5 over wild type PRMT5 [1] [fold] | Structure (SMILES) | toxicity in the mouse [2]
1 | 4.3 | CCn1c(=O)[nH]c2cc(C(=O)Nc3ccc(OC)cc3)ccc2c1=O [Compound C5] | –
2 | – | COc1ccc(Nc2ncnc3c2cnn3Cc2ccc(C)cc2)cc1 [Compound C9] | high toxicity
